From patent US12358915B2, “METTL3 inhibitory compounds” (STORM THERAPEUTICS LTD., priority 2019, dated 2025)

Target: T1, METTL3/14 (Homo sapiens, UniProt Q86U44)
T1 construct: The enzyme used was full-length his-tagged METTL3; His; made in house
Experiment: METTL3/14 methyltransferase assay (METTL3_14 RFMS, RapidFire mass spectrometry);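 also: recombinant His-tagged METTL3 with FLAG-tagged METTL14 from baculovirus, SAH product quantified by mass spectrometry against isotope-labelled internal standards, 60 min at room temperature, scaled between no-RNA and DMSO-only wells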
Format: biochemical
Conditions: 5 nM METTL3/14, 0.2 μM RNA substrate, 0.5 μM SAM; lower limit of the assay IC50=5 nM; Compounds 1-62; read-out: METTL3_14 RFMS IC50

T1 sequence (Q86U44 whole entry): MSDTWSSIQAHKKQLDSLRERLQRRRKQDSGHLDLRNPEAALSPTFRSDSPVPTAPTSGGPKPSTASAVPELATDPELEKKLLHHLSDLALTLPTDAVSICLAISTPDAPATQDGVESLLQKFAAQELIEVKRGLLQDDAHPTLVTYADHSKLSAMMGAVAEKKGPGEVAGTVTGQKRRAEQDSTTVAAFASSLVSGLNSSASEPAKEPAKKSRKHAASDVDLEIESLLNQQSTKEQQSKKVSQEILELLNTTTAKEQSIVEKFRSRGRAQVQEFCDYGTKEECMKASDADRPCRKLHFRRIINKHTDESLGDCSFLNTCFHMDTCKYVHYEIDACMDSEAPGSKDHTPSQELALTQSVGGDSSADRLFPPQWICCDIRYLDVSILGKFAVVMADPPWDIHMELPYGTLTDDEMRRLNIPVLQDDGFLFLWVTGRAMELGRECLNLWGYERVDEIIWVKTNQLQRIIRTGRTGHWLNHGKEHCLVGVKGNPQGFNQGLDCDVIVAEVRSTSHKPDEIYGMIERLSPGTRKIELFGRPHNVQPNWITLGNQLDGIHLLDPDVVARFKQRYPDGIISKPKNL
T1 sequence (Q9HCE5 whole entry partner): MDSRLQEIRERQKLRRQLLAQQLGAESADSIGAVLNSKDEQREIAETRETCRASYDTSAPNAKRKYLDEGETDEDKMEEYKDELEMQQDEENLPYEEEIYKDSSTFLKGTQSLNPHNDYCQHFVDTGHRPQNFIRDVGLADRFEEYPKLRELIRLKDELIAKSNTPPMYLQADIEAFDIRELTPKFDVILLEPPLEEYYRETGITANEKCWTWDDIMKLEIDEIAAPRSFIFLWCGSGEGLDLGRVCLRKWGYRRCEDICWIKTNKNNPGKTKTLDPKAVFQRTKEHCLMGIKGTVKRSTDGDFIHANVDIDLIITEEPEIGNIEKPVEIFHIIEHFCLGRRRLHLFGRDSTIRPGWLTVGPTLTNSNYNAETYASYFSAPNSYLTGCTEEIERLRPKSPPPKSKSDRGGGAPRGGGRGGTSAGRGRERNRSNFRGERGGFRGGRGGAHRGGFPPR

Row | IC50 [µM] | Structure (SMILES)
1 | 9.84 | O=C(NCc1cn2ccc(Br)cc2n1)c1cccc2[nH]ncc12 [Compound 2, N-({7-bromoimidazo[1,2-a]pyridin-2-yl}methyl)-1H-indazole-4-carboxamide]
2 | 4.66 | O=C(NCc1cn2cc(Br)ccc2n1)c1cccc2[nH]ncc12 [Compound 3, N-({6-bromoimidazo[1,2-a]pyridin-2-yl}methyl)-1H-indazole-4-carboxamide]
3 | 6.07 | O=C(NCc1cn2cc(Cl)ccc2n1)c1cccc2[nH]ncc12 [Compound 4, N-({6-chloroimidazo[1,2-a]pyridin-2-yl}methyl)-1H-indazole-4-carboxamide]
4 | 9.45 | O=C(NCc1cn2ccc(F)cc2n1)c1cccc2[nH]ncc12 [Compound 5, N-({7-fluoroimidazo[1,2-a]pyridin-2-yl}methyl)-1H-indazole-4-carboxamide]
5 | 9.12 | O=C(NCc1cn2cc(F)ccc2n1)c1cccc2[nH]ncc12 [Compound 6, N-({6-fluoroimidazo[1,2-a]pyridin-2-yl}methyl)-1H-indazole-4-carboxamide]
6 | 2.67 | COc1ccn2cc(CNC(=O)c3cccc4[nH]ncc34)nc2c1 [Compound 7, N-({7-methoxyimidazo[1,2-a]pyridin-2-yl}methyl)-1H-indazole-4-carboxamide]
7 | 4.56 | Cc1ccc2nc(CNC(=O)c3cc(-c4ccn[nH]4)cc4[nH]ncc34)cn2c1 [Compound 8, N-({6-methylimidazo[1,2-a]pyridin-2-yl}methyl)-6-(1H-pyrazol-5-yl)-1H-indazole-4-carboxamide]
8 | 1.61 | Cc1ccc2nc(CNC(=O)c3cc(Br)cc4[nH]ncc34)cn2c1 [Compound 10, 6-bromo-N-({6-methylimidazo[1,2-a]pyridin-2-yl}methyl)-1H-indazole-4-carboxamide]
9 | 4.1 | Cc1ccn2cc(CNC(=O)c3cc(Br)cc4[nH]ncc34)nc2c1 [Compound 11, 6-bromo-N-({7-methylimidazo[1,2-a]pyridin-2-yl}methyl)-1H-indazole-4-carboxamide]
10 | 1.41 | Cc1ccc2nc(CNC(=O)c3cc(=O)c4ccccc4o3)cn2c1 [Compound 12, N-({6-methylimidazo[1,2-a]pyridin-2-yl}methyl)-4-oxo-4H-chromene-2-carboxamide]
11 | 4.18 | O=C(NCc1cn2ccccc2n1)c1cc(=O)c2ccccc2o1 [Compound 13]
12 | 0.536 | Cc1ccc2nc(CNC(=O)c3cc(=O)n4ccccc4n3)cn2c1 [Compound 15, N-({6-methylimidazo[1,2-a]pyridin-2-yl}methyl)-4-oxo-4H-pyrido[1,2-a]pyrimidine-2-carboxamide]
13 | 2.24 | Cc1ccn2cc(CNC(=O)c3cc(=O)n4ccccc4n3)nc2c1 [Compound 17, N-({7-methylimidazo[1,2-a]pyridin-2-yl}methyl)-4-oxo-4H-pyrido[1,2-a]pyrimidine-2-carboxamide]
14 | 1.86 | N#Cc1ccc2nc(CNC(=O)c3cc(=O)n4ccccc4n3)cn2c1 [Compound 18, N-({6-cyanoimidazo[1,2-a]pyridin-2-yl}methyl)-4-oxo-4H-pyrido[1,2-a]pyrimidine-2-carboxamide]
15 | 2.6 | COc1ccn2c(=O)cc(C(=O)NCc3cn4cc(C)ccc4n3)nc2c1 [Compound 19, 8-methoxy-N-({6-methylimidazo[1,2-a]pyridin-2-yl}methyl)-4-oxo-4H-pyrido[1,2-a]pyrimidine-2-carboxamide]
16 | 8.41 | Cc1ccc2nc(CNC(=O)c3ccc4[nH]ncc4c3)cn2c1 [Compound 20, N-({6-methylimidazo[1,2-a]pyridin-2-yl}methyl)-1H-indazole-5-carboxamide]
17 | 3.06 | Cc1ccc2nc(CNC(=O)c3cc(=O)n4cc(Cl)ccc4n3)cn2c1 [Compound 21, 7-chloro-N-({6-methylimidazo[1,2-a]pyridin-2-yl}methyl)-4-oxo-4H-pyrido[1,2-a]pyrimidine-2-carboxamide]
18 | 2.21 | O=C(NCc1cn2cc(F)ccc2n1)c1cc(=O)n2ccccc2n1 [Compound 22, N-({6-fluoroimidazo[1,2-a]pyridin-2-yl}methyl)-4-oxo-4H-pyrido[1,2-a]pyrimidine-2-carboxamide]
19 | 1.79 | O=C(NCc1cn2cc(Br)ccc2n1)c1cc(=O)n2ccccc2n1 [Compound 23, N-({6-bromoimidazo[1,2-a]pyridin-2-yl}methyl)-4-oxo-4H-pyrido[1,2-a]pyrimidine-2-carboxamide]
20 | 6.77 | COc1ccc2nc(CNC(=O)c3cc(=O)n4ccccc4n3)cn2c1 [Compound 24, N-({6-methoxyimidazo[1,2-a]pyridin-2-yl}methyl)-4-oxo-4H-pyrido[1,2-a]pyrimidine-2-carboxamide]
21 | 0.543 | COc1ccn2cc(CNC(=O)c3cc(=O)n4ccccc4n3)nc2c1 [Compound 25, N-({7-methoxyimidazo[1,2-a]pyridin-2-yl}methyl)-4-oxo-4H-pyrido[1,2-a]pyrimidine-2-carboxamide]
22 | 2.06 | O=C(NCc1cn2ccccc2n1)c1cc(=O)n2ccccc2n1 [Compound 26]
23 | 6.61 | Cc1cccn2cc(CNC(=O)c3cc(=O)n4ccccc4n3)nc12 [Compound 27, N-({8-methylimidazo[1,2-a]pyridin-2-yl}methyl)-4-oxo-4H-pyrido[1,2-a]pyrimidine-2-carboxamide]
24 | 2.78 | O=C(NCc1cn2ccc(Br)cc2n1)c1cc(=O)n2ccccc2n1 [Compound 29, N-({7-bromoimidazo[1,2-a]pyridin-2-yl}methyl)-4-oxo-4H-pyrido[1,2-a]pyrimidine-2-carboxamide]
25 | 8.52 | Cc1ccc2nc(C(CO)NC(=O)c3cccc4[nH]ncc34)cn2c1 (centres unmarked) [Compound 30, N-(2-hydroxy-1-{6-methylimidazo[1,2-a]pyridin-2-yl}ethyl)-1H-indazole-4-carboxamide]
26 | 9.35 | O=C(c1cccc2[nH]ncc12)N1CC=C(c2cn3ccccc3n2)C1 [Compound 31, 4-(3-{imidazo[1,2-a]pyridin-2-yl}-2,5-dihydro-1H-pyrrole-1-carbonyl)-1H-indazole]
27 | 7.34 | O=C(NCc1cn2cc(NCc3cccnc3)ccc2n1)c1cccc2[nH]ncc12 [Compound 32, N-[(6-{[(pyridin-3-yl)methyl]amino}imidazo[1,2-a]pyridin-2-yl)methyl]-1H-indazole-4-carboxamide]
28 | 5.87 | Cn1cnc(CNc2ccc3nc(CNC(=O)c4cccc5[nH]ncc45)cn3c2)c1 [Compound 33, N-[(6-{[(1-methyl-1H-imidazol-4-yl)methyl]amino}imidazo[1,2a]pyridin-2-yl)methyl]-1H-indazole-4-carboxamide]
29 | 5.35 | COc1cccc(-c2ccc3nc(CNC(=O)c4cccc5[nH]ncc45)cn3c2)c1 [Compound 34, N-{[6-(3-methoxyphenyl)imidazo[1,2-a]pyridin-2-yl]methyl}-1H-indazole-4-carboxamide]

Same assay, conditions: primary enzyme screen, inhibition of RNA methyltransferase activity; lower limit of the assay is IC50=5 nM; read-out: IC50

Row | IC50 [µM] | Structure (SMILES)
30 | 0.52 | Cc1ccc2nc(CNC(=O)c3cc(=O)n4ccccc4n3)cn2c1 [Compound 15, N-({6-methylimidazo[1,2-a]pyridin-2-yl}methyl)-4-oxo-4H-pyrido[1,2-a]pyrimidine-2-carboxamide]

Same assay, conditions: read-out: METTL3_14 RFMS IC50

Row | IC50 [µM] | Structure (SMILES)
31 | 1.22 | O=C(NCc1cn2cc([C@H]3COC[C@@H](C4CCCCC4)N3)ccc2n1)c1cccc2[nH]ncc12 (racemic) [Example 231, N-({6-[(3S,5R)-5-cyclohexylmorpholin-3-yl]imidazo[1,2-a]pyridin-2-yl}methyl)-1H-indazole-4-carboxamide]
32 | 5.9 | C#Cc1cc(C(=O)NCc2cn3cc(C)ccc3n2)c2cn[nH]c2c1 [Compound 14, 6-ethynyl-N-({6-methylimidazo[1,2-a]pyridin-2-yl}methyl)-1H-indazole-4-carboxamide]
